# Measured values from US10851089B2, “Matrix metalloproteinase (MMP) inhibitors and methods of use thereof” (Foresee Pharmaceuticals Co., Ltd., priority 2018, dated 2020).
# Assays:
# [1] = tested on: UUO-induced renal fibrosis; assay: SD rat kidney fibrosis model by unilateral ureteral occlusion (UUO); assay type: in vivo, Sprague Dawley rat
# Experimental: This study was to evaluate the therapeutic efficacy of the MMP-12 inhibitor FC-4 on a renal fibrosis model by unilateral ureteral occlusion (UUO). Male Sprague Dawley (SD) rats (180-220 g, n=71) were used in this study. Animals were randomly divided into 4 groups: vehicle group (group-1, n=8), FC-4 2 mg/kg/day group (group-2, n=9), FC-4 6 mg/kg/day group (group-3, n=9), FC-4 20 mg/kg/day group (group-4, n=9). Animals were anesthetized with 2.5% isoflurane inhalation. The left ureter was ligated to create a unilateral ureteral occlusion (UUO) model to induce renal fibrosis. The test article FC-4 was administrated twice a day via oral delivery after modeling for 14 days. Peripheral blood serum was prepared at pre-modeling and day-15 (one day after last dosing). All animals were euthanized and processed for left kidney pathology studies.
# Animals: Gender: Male, SD rats, 180-220 g, total 71. Certificate: 11400700272659, Beijing Vital River Laboratory Animal Technology Co., Ltd., China. Animal holding: Animals were maintained in a temperature-controlled environment with a 12 hours light/12 hours dark cycle and free access to food and water. Experimental procedures were performed according to IACUC guidelines in the KCI (SuZhou) Biotech Inc. (KCI) animal research facility. Model creation: Total 36 male SD rats were used in this study. After anesthesia with 2.5% isoflurane inhalation the animal abdomen was opened surgically. The left ureter was exposed and ligated close to the bladder to create the UUO model. After confirming no bleeding, the abdomen wall was closed in layers. The animals were maintained under temperature controlled pad (37° C.) for the recovery from anesthesia, and then were transferred to holding cages with regular food and water.
# Experiment grouping: UUO modeling animals were divided into 4 groups randomly as vehicle (group-1, n=9), FC-4 2 mg/kg/day (group-2, n=9), FC-4 6 mg/kg/day (group-3, n=9), FC-4 20 mg/kg/day (group-4, n=9) (Table 4.1). Dosing regimen: All test articles were designed as an oral administration via a gastric perfusion. Test articles were designed to be delivered twice a day starting on the same day of modeling for 14 days (Table 4.1). Endpoints: 1) Blood collection: Peripheral blood was collected from all animals in each group and prepared for serum at pre-modeling and day-15 (one day after last dosing), stored at −80° C. All animals were euthanized according to KCI SOP. After confirming animal death without breath and heart beat, the left kidneys were perfused with cold PBS followed by 10% neutral formalin and collected for further pathology study. 2) Detection of serum BUN and creatinine: The serum BUN and creatinine level were detected with Hitachi 7060 automatic biochemical analyzer and related test kits. 3) Kidney pathology examination: 3a) Kidney H&E staining and analysis: Following KCI's pathologic SOP all left kidneys were fixed in 10% formalin for at least 24 h at room temperature. After fixation, the kidney was cut longitudinally to get the largest surface and dehydrated in graded ethanol, cleared in xylene, and embedded in paraffin. Thin sections (3-μm) were mounted on glass slides, dewaxed, rehydrated to distilled water, and stained with hematoxylin and eosin (H&E). All stained slides were scanned with NanoZoomer Digital Pathology (S210, Hamamaci, Japan) scanner. Semi quantitative evaluation of the degree of tubular epithelial flattening and dilatation were graded from 0-5 according to the percentage of tubular involvement: score 0=no damage; score 1=1-10% damage; score 2=10-25% damage; score 3=25-50% damage; score 4=50-75% damage; score 5=75-100% damage. Semi quantitative evaluation of the tubular necrosis is graded from 0 to 3 according to the percentage of tubular involvement: score 0=no necrosis; score 1=<25% necrosis; score 2=25-50% necrosis; score 3=>50% necrosis. The average of tubular flattening and dilatation and necrosis as the total tubular damage was presented. […]
# recombinant human MMP-13 = recombinant human MMP-13 (Homo sapiens (Human), UniProt P45452); assay: MMP selectivity assay MMP-13; assay type: biochemical
# Experimental: (§1) The inhibitory effect of compounds on the rate of cleaving fluorogenic MMP substrate (Enzo, BML-P128) by recombinant human MMP-12 catalytic domain (Enzo, BML-SE138) was carried out by methods known in the art. Briefly, to each well of a 96-well black opaque plate, all the reagents were sequentially added by pipetting, and the final reaction contained 4 nM of recombinant human MMP-12 catalytic domain, 4 μM of fluorogenic MMP substrate, and various concentrations (0.15 nM to 10,000 nM) of tested compound dilutions in HEPES buffer (pH 7.5) containing 10 mM of CaCl2, 0.01% Brij® 35 (polyoxyethylene (23) lauryl ether), and 0.1 mg/ml of BSA.
# (§2) The enzyme and compounds were pre-incubated on a shaker to mix in wells. After an hour of mixing, fluorogenic substrate was added to each well. Reaction without enzyme was used as a blank control in the plate. The plate was then fed into a plate reader to measure fluorescence intensity at Excitation/Emission wavelengths of 340 nm/440 nm every 10 mins for at least 1 hour at 37° C. The IC50 of each compound in MMP-12 inhibition was determined by using a readout obtained at time point 30 minutes.
# (§3) The MMP selectivity assay was performed by using other recombinant human MMPs, including MMP-1, MMP-2, MMP-3, MMP-7, MMP-8, MMP-9, MMP-10, MMP-13, and MMP-14. The IC50 of the compounds for the other recombinant human MMPs was determined as described above in Example 1, and are shown in Table 2.
# recombinant human MMP-2 = recombinant human MMP-2 (Homo sapiens (Human), UniProt P08253); assay: MMP selectivity assay MMP-2; assay type: biochemical
# Chain of recombinant human MMP-2 (P08253 110-660): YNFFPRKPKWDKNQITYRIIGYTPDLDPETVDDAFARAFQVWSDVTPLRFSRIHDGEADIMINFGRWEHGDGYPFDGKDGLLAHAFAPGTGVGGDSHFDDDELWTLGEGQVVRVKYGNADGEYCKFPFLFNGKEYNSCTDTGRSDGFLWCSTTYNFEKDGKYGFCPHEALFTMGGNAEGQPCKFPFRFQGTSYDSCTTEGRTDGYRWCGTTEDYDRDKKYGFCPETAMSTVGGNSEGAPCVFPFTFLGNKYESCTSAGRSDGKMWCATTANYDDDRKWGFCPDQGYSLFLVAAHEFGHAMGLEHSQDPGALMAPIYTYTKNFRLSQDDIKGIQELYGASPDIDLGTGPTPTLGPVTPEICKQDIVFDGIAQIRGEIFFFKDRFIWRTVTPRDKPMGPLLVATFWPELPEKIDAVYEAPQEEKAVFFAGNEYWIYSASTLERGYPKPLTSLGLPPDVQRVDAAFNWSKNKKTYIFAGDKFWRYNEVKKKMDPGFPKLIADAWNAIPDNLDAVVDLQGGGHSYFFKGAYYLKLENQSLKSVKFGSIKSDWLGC
# Experimental: as §1, §2, §3
smiles,measurement,setting,value
Cc1cc(COc2ccc(Sc3ccoc3C3NC(=O)NC3=O)cc2)ccn1 (stereo not drawn) [FC-4],Collagen-IV deposition in cortex of left kidney (IHC),"[1]; 6 mg/kg/day, p<0.05",significant reduction
same,Collagen-I deposition in cortex of left kidney (IHC),[1]; 20 mg/kg/day,significant reduction
same,Serum BUN elevation,"[1]; 20 mg/kg/day p.o. bid, day-15, not statistically significant vs model",slightly limit the BUN elevation
same,Collagen-IV deposition in cortex of left kidney (IHC),"[1]; 20 mg/kg/day, p<0.001",significant reduction
same,Interstitial fibrosis score in cortex,"[1]; 20 mg/kg/day, p<0.001",significant reduction
same,Left kidney tubular damage score,"[1]; 2, 6, 20 mg/kg/day, 20 more effective than 2 mg/kg/day (p<0.01)",clear dose dependent effect
same,Interstitial inflammation in cortex (semi quantitative),[1]; dose dependent efficacy,significant reduction
same,IC50,recombinant human MMP-13,10 to 100 nM
same,IC50,recombinant human MMP-2,100 to 1000 nM
